Measurements as given in ChEMBL document CHEMBL1201862, “PubChem BioAssay data set” (2004).
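A five-concentration, 48-hour dose response in 96-well plates underlies each endpoint, interpolated linearly between surrounding concentrations. Abbreviation: GI50, concentration required for 50% inhibition of growth.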 Active and inactive are the calls of the source. No stated cut-off is given here; in the data, active = GI50 up to about 1.1 µM and inactive = higher.

Assays:
Assay in all cases: NCI tumour cell line growth inhibition, 48 h
786-0 = tested on: 786-0
A498 = tested on: A498
A549 = tested on: A549
ACHN = tested on: ACHN
CCRF-CEM = tested on: CCRF-CEM
HOP-62 = tested on: HOP-62
LOX IMVI = tested on: LOX IMVI
MOLT-4 = tested on: MOLT-4
NCI-H226 = tested on: NCI-H226
NCI-H23 = tested on: NCI-H23
NCI/ADR-RES = tested on: NCI/ADR-RES
OVCAR-8 = tested on: OVCAR-8
PC-3 = tested on: PC-3
SK-MEL-5 = tested on: SK-MEL-5
SK-OV-3 = tested on: SK-OV-3
SNB-19 = tested on: SNB-19
SW-620 = tested on: SW-620
T47D = tested on: T47D
UACC-257 = tested on: UACC-257
UACC-62 = tested on: UACC-62

Measured: GI50

CC(Cc1ccc(O)cc1)NCC(O)c1ccc(O)c(O)c1 (stereo not given)
inactive: 786-0 > 100 µM | A498 > 100 µM | A549 > 100 µM | ACHN > 100 µM | CCRF-CEM > 100 µM | HOP-62 > 100 µM | LOX IMVI > 100 µM | MOLT-4 73.5 µM | NCI-H226 > 100 µM | NCI-H23 > 100 µM | NCI/ADR-RES > 100 µM | OVCAR-8 > 100 µM | PC-3 > 100 µM | SK-MEL-5 > 100 µM | SK-OV-3 > 100 µM | SNB-19 > 100 µM | SW-620 > 100 µM | T47D > 100 µM | UACC-257 > 100 µM | UACC-62 > 100 µM

COc1ccc2nc3cccc([N+](=O)[O-])c3c(NCCC(=O)O)c2c1
inactive: 786-0 > 10 µM | A498 > 10 µM | A549 > 10 µM | ACHN > 10 µM | CCRF-CEM 6.67 µM | HOP-62 > 10 µM | LOX IMVI > 10 µM | MOLT-4 5.22 µM | NCI-H226 > 10 µM | NCI-H23 > 10 µM | NCI/ADR-RES > 10 µM | OVCAR-8 > 10 µM | PC-3 > 10 µM | SK-MEL-5 > 10 µM | SK-OV-3 > 10 µM | SNB-19 > 10 µM | SW-620 > 10 µM | T47D 7.5 µM | UACC-257 > 10 µM | UACC-62 > 10 µM

CC(=O)NC1C(OC(C)C(=O)NC(C)C(=O)NC(CCC(=O)NCCCCCNc2ccc([N+](=O)[O-])c3[nH]c4ccccc4c(=O)c23)C(N)=O)C(O)C(CO)OC1(C)OCc1ccccc1 (stereo not given)
inactive: 786-0 38.7 µM | A498 > 100 µM | A549 50.8 µM | ACHN > 100 µM | CCRF-CEM > 100 µM | HOP-62 89.7 µM | LOX IMVI > 100 µM | MOLT-4 24.8 µM | NCI-H226 89.9 µM | NCI-H23 > 100 µM | NCI/ADR-RES > 100 µM | OVCAR-8 71.6 µM | PC-3 > 100 µM | SK-MEL-5 > 100 µM | SK-OV-3 > 100 µM | SNB-19 > 100 µM | SW-620 67.9 µM | T47D > 100 µM | UACC-257 > 100 µM | UACC-62 > 100 µM

Cc1nc2[nH]ccn2c(=O)c1CCCl
inactive: 786-0 25.5 µM | A498 19 µM | A549 45.5 µM | ACHN 23.1 µM | CCRF-CEM 18 µM | HOP-62 23.6 µM | LOX IMVI 16.6 µM | MOLT-4 14.8 µM | NCI-H226 > 100 µM | NCI-H23 18.3 µM | NCI/ADR-RES 26.5 µM | OVCAR-8 26.7 µM | PC-3 49.7 µM | SK-MEL-5 17.1 µM | SK-OV-3 26.5 µM | SNB-19 57.1 µM | SW-620 17.3 µM | T47D 91 µM | UACC-257 94.2 µM | UACC-62 24.8 µM
